Assays:
Cav1.2/β3/α2δ = biological target: T1, Cav1.2/β3/α2δ (Homo sapiens, UniProt Q13936); assay: Two-electrode voltage clamp of Cav1.2/β3/α2δ expressed in Xenopus oocytes (Ba2+ as charge carrier); format: cell-based; conditions: for ICa I/I0: relative current at 0 mV
T1 construct: expressed in transfected cells; host or cells: Xenopus laevis oocytes (cRNA injection, Cav1.2:β3:α2δ 2:1:1 by weight)
Protocol: (§1) Molecular Biology cRNA encoding Kv7.1 (UniProt: P51787), KCNE1 (UniProt: P15382.1), Nav1.5 (UniProt: Q14524.1), Nav β1 (UniProt: […]), Nav β3 (UniProt: […]), Cav1.2 (GenBank: CAA84346), Cav β3 (Uniprot: P54286), Cav β2 (Uniprot: P54288), and Cav α2δ (Uniprot: P13806) were transcribed using the mMessage mMachine T7 kit (Ambion). 50 ng of cRNA was injected into defolliculated Xenopus laevis oocytes (Ecocyte, Austin, TX): For Kv7.1/KCNE1 channel expression, we injected a 3:1, weight:weight (Kv7.1:KCNE1) cRNA ratio. For Nav1.5 channel expression, we injected a 2:1, weight:weight (Nav1.5:β1) cRNA ratio. For Cav1.2 channel expression, we injected a 2:1:1, weight:weight (Cav1.2:β3:α2δ) cRNA ratio. The exact stoichiometry for channel macromolecular complexes, including α -subunits and auxiliary subunits is not clear for many ion channels. For example, there have been multiple reported stoichiometries for Kv7.1:KCNE1 determined in heterologous expression systems with some groups reporting flexible stoichiometry of 4 Kv7.1: 1–4 KCNE1 and others reporting a fixed stoichiometry of 4 Kv7.1: 2 KCNE1 ([Murray et al., 2016]; [Nakajo et al., 2010]). The ratios of cRNA of α- and auxiliary subunits that we injected in Xenopus laevis oocytes are such that all α-subunits are assumed to be in complex with auxiliary subunits. This allows a more homogenous population of ion channels with auxiliary subunits. One caveat to expressing ion channels as macromolecular complexes is that there are many other auxiliary subunits that could associate with the channel α -subunit that are present in cardiomyocytes and have the potential to alter PUFA-induced effects, but that are not being co-expressed in our experiments. In this work, we are co-expressing some of the auxiliary subunits that have been primarily reported to associate with their respective α -subunits in cardiomyocytes. Following cRNA injection, cells were incubated for 72–96 hr in standard ND96 solution (96 mM NaCl, 2 mM KCl, 1 mM MgCl2, 1.8 mM CaCl2, 5 mM HEPES; pH = 7.5) containing 1 mM pyruvate at 16°C prior to electrophysiological recordings.
(§2) Xenopus laevis oocytes were recorded in the two-electrode voltage clamp (TEVC) configuration. Recording pipettes were filled with 3 M KCl. The recording chamber was filled with ND96 (96 mM NaCl, 2 mM KCl, 1 mM MgCl2, 1.8 mM CaCl2, 5 mM HEPES; pH 7.5). For Cav1.2/β3/α2δ channel recordings, Xenopus oocytes were injected with 50 nl of 100 mM EGTA and incubated at 10°C for 30 min prior to electrophysiological recordings in order to sequester cytosolic calcium. In addition, Cav1.2/β3/α2δ channel recordings were done in Ca^2+-free solutions, using Ba^2+ as the charge carrier, to prevent calcium-dependent inactivation of Cav1.2/β3/α2δ channels. Calcium-dependent inactivation was not studied in this work, due to the presence of large calcium-activated chloride currents present in Xenopus laevis oocytes. PUFAs were obtained from Cayman Chemical (Ann Arbor, MI.) or synthesized in house (Linköping, Sweden) through methods previously described ([Bohannon et al., 2020]) and kept at −20 °C as 100 mM stock solutions in ethanol. Serial dilutions of the different PUFAs were prepared from stocks to make 0.2 μM, 0.7 μM, 2 μM, 7 μM, and 20 μM concentrations in ND96 solutions (pH = 7.5). PUFAs were perfused into the recording chamber using the Rainin Dynamax Peristaltic Pump (Model RP-1) (Rainin Instrument Co., Oakland, CA. USA).
(§3) Electrophysiological recordings were obtained using Clampex 10.3 software (Axon, pClamp, Molecular Devices). To measure Kv7.1/KCNE1 currents we apply PUFAs as the membrane potential is stepped every 30 s from −80 mV to 0 mV for 5 s before stepping to −40 mV and back to −80 mV to ensure that the PUFA effects on the current at 0 mV reached steady state. A voltage-step protocol was used to measure the current vs. voltage (I-V) relationship before PUFA application and after the PUFA effects had reached steady state for each concentration of PUFA. […]

Nav1.5/β1 = biological target: T2, Nav1.5/β1 (Homo sapiens, UniProt Q14524); assay: Two-electrode voltage clamp of Nav1.5/β1 expressed in Xenopus oocytes; format: cell-based; conditions: for INa I/I0: relative current at 0 mV
T2 construct: Nav1.5 (UniProt: Q14524.1); expressed in transfected cells; host or cells: Xenopus laevis oocytes (cRNA injection, Nav1.5:β1 2:1 by weight)
T2 sequence (Q14524 whole entry): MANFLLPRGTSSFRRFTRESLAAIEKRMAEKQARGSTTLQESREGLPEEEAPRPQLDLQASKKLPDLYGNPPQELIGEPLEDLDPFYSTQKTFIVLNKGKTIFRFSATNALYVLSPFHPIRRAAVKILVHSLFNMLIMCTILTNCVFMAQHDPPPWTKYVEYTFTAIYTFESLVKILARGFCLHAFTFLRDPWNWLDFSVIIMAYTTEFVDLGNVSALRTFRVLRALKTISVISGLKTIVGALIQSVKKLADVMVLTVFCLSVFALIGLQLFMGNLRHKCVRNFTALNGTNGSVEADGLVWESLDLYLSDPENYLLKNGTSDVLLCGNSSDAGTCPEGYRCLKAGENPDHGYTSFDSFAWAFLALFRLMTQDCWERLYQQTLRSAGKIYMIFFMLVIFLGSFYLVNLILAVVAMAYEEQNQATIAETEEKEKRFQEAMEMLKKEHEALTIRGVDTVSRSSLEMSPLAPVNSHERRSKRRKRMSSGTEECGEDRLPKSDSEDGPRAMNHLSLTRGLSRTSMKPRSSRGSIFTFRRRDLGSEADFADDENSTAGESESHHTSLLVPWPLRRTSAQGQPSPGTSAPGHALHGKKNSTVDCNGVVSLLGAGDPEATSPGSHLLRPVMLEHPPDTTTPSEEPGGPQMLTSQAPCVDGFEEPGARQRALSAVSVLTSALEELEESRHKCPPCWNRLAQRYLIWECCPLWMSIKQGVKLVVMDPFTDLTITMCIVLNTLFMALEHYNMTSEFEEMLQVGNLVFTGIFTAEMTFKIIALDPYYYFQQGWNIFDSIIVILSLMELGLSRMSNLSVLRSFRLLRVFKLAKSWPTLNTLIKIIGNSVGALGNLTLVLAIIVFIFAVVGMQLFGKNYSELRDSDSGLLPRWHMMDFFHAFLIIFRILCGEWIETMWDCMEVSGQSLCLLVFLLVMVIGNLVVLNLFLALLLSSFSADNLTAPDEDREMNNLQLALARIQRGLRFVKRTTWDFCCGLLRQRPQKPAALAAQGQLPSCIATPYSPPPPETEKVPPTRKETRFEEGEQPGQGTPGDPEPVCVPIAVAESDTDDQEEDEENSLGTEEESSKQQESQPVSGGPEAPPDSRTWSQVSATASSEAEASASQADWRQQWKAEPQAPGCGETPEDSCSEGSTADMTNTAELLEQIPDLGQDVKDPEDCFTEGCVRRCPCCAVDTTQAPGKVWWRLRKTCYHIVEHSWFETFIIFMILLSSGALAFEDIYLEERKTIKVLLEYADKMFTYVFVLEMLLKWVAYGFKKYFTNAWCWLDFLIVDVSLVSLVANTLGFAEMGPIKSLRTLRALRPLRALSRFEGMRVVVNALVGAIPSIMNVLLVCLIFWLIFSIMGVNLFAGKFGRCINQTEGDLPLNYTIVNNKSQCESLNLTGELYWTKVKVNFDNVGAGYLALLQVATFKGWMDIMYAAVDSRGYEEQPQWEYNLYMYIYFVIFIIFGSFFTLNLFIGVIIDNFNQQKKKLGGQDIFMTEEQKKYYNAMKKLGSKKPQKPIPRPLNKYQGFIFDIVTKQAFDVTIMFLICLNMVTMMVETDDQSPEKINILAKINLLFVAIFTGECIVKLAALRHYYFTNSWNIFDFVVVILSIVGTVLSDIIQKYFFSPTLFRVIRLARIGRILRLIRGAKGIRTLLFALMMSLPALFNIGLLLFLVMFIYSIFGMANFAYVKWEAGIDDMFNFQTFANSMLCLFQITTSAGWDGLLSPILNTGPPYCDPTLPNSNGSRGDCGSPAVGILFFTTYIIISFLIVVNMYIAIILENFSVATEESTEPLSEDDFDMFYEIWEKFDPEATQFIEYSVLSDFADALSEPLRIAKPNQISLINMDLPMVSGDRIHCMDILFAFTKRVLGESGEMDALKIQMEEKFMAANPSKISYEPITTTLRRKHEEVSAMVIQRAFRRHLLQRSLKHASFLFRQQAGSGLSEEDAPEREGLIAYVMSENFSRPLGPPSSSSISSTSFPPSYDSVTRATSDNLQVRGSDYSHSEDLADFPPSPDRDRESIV
T2 sequence (Q07699 19-218 partner): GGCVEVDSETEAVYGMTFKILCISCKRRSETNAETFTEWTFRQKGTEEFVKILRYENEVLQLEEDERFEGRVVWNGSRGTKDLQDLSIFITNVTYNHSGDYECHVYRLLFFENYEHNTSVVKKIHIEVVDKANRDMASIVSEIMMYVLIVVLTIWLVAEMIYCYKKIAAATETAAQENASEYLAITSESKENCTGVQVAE
Protocol: as §1, §2, §3

Structure (SMILES) | Gmax/Gmax0 (Cav1.2/β3/α2δ; 0.2 μM) | ΔV0.5 (voltage dependence of inactivation) (Cav1.2/β3/α2δ; 0.2 μM) [mV] | ICa I/I0 (Cav1.2/β3/α2δ; 0.2 μM) | Gmax/Gmax0 (Cav1.2/β3/α2δ; 0.7 μM) | ΔV0.5 (voltage dependence of inactivation) (Cav1.2/β3/α2δ; 0.7 μM) [mV] | ICa I/I0 (Cav1.2/β3/α2δ; 0.7 μM) | Gmax/Gmax0 (Cav1.2/β3/α2δ; 2 μM) | ΔV0.5 (voltage dependence of inactivation) (Cav1.2/β3/α2δ; 2 μM) [mV] | ICa I/I0 (Cav1.2/β3/α2δ; 2 μM) | Gmax/Gmax0 (Cav1.2/β3/α2δ; 7 μM) | ΔV0.5 (voltage dependence of inactivation) (Cav1.2/β3/α2δ; 7 μM) [mV] | ICa I/I0 (Cav1.2/β3/α2δ; 7 μM) | Gmax/Gmax0 (Cav1.2/β3/α2δ; 20 μM) | ΔV0.5 (voltage dependence of inactivation) (Cav1.2/β3/α2δ; 20 μM) [mV] | ICa I/I0 (Cav1.2/β3/α2δ; 20 μM) | Gmax/Gmax0 (Nav1.5/β1; 0.2 μM) | ΔV0.5 (voltage dependence of inactivation) (Nav1.5/β1; 0.2 μM) [mV] | INa I/I0 (Nav1.5/β1; 0.2 μM) | Gmax/Gmax0 (Nav1.5/β1; 0.7 μM) | ΔV0.5 (voltage dependence of inactivation) (Nav1.5/β1; 0.7 μM) [mV] | other results
CCCCC/C=C\C/C=C\CC/C=C\CCCC(=O)NCC(=O)O [Pin-glycine] | 0.9 ± 0.1 | -3.2 ± 3.0 | 0.7 ± 0.1 | 0.9 ± 0.1 | -3.3 ± 3.4 | 0.8 ± 0.1 | 0.9 ± 0.1 | -4.3 ± 4.1 | 0.8 ± 0.1 | 0.8 ± 0.1 | −3.1 ± 4.2 | 0.8 ± 0.1 (p=0.26) | 0.7 ± 0.2 | -3.4 ± 5.6 | 0.6 ± 0.2 | 1.0 ± 0.03 | 0.4 ± 0.3 | 1.1 ± 0.05 | 1.0 ± 0.03 | 0.4 ± 0.6 | Gmax/Gmax0 (Cav1.2/β3/α2δ; 7 μM, listed as pin-glycine): 0.8 ± 0.2; ΔV0.5 (voltage dependence of inactivation) (Cav1.2/β3/α2δ; 7 μM, listed as pin-glycine): -3.1 ± 4.2 mV; ICa I/I0 (Cav1.2/β3/α2δ; 7 μM, listed as pin-glycine): 0.8 ± 0.1; INa I/I0 (Nav1.5/β1; 0.7 μM): 1.1 ± 0.1; Gmax/Gmax0 (Nav1.5/β1; 2 μM): 0.9 ± 0.04; ΔV0.5 (voltage dependence of inactivation) (Nav1.5/β1; 2 μM): -0.3 ± 0.7 mV; INa I/I0 (Nav1.5/β1; 2 μM): 1.0 ± 0.1; Gmax/Gmax0 (Nav1.5/β1; 7 μM): 0.7 ± 0.08; ΔV0.5 (voltage dependence of inactivation) (Nav1.5/β1; 7 μM): –4.7 ± 1.9 mV; Gmax/Gmax0 (Nav1.5/β1; 7 μM, listed as pin-glycine): 0.7 ± 0.1; ΔV0.5 (voltage dependence of inactivation) (Nav1.5/β1; 7 μM, listed as pin-glycine): -4.8 ± 1.9 mV; INa I/I0 (Nav1.5/β1; 7 μM): 0.7 ± 0.1 (p=0.09); INa I/I0 (Nav1.5/β1; 7 μM, listed as pin-glycine): 0.7 ± 0.1; Gmax/Gmax0 (Nav1.5/β1; 20 μM): 0.3 ± 0.1; ΔV0.5 (voltage dependence of inactivation) (Nav1.5/β1; 20 μM): -17.8 ± 4.2 mV; INa I/I0 (Nav1.5/β1; 20 μM): 0.3 ± 0.1
CCCCC/C=C\C/C=C\CC/C=C\CCCC(=O)NCCS(=O)(=O)O [Pin-taurine] | 0.9 ± 0.1 | 2.7 ± 1.9 | 0.7 ± 0.1 | 1.0 ± 0.1 | 3.9 ± 1.9 | 0.8 ± 0.1 | 1.0 ± 0.1 | 3.7 ± 1.8 | 0.8 ± 0.1 | 0.8 ± 0.1 | 4.1 ± 2.2 | 0.7 ± 0.1 (p=0.02) | 0.6 ± 0.1 | 6.0 ± 4.1 | 0.5 ± 0.1 | 1.2 ± 0.2 | 1.6 ± 0.9 | 1.2 ± 0.1 | 1.2 ± 0.2 | 0.9 ± 1.1 | ICa I/I0 (Cav1.2/β3/α2δ; 7 μM, listed as pin-taurine): 0.7 ± 0.1; INa I/I0 (Nav1.5/β1; 0.7 μM): 1.2 ± 0.1; Gmax/Gmax0 (Nav1.5/β1; 2 μM): 1.0 ± 0.1; ΔV0.5 (voltage dependence of inactivation) (Nav1.5/β1; 2 μM): -3.0 ± 1.9 mV; INa I/I0 (Nav1.5/β1; 2 μM): 1.0 ± 0.1; Gmax/Gmax0 (Nav1.5/β1; 7 μM): 0.4 ± 0.09; ΔV0.5 (voltage dependence of inactivation) (Nav1.5/β1; 7 μM): –16 ± 2.7 mV; Gmax/Gmax0 (Nav1.5/β1; 7 μM, listed as pin-taurine): 0.4 ± 0.1; ΔV0.5 (voltage dependence of inactivation) (Nav1.5/β1; 7 μM, listed as pin-taurine): -16.0 ± 2.7 mV; INa I/I0 (Nav1.5/β1; 7 μM): 0.5 ± 0.1 (p=0.01); INa I/I0 (Nav1.5/β1; 7 μM, listed as pin-taurine): 0.5 ± 0.1; Gmax/Gmax0 (Nav1.5/β1; 20 μM): 0.1 ± 0.02; ΔV0.5 (voltage dependence of inactivation) (Nav1.5/β1; 20 μM): -28.1 ± 2.4 mV; INa I/I0 (Nav1.5/β1; 20 μM): 0.2 ± 0.03

Source: article PMC7159882, “Polyunsaturated fatty acid analogues differentially affect cardiac NaV, CaV, and KV channels through unique mechanisms” (eLife, 2020)
